Data taken from PubChem BioAssay AID1963960 (Molecular Pharmacology Branch, DTP, NCI, 2024).
Values joined by “and” are separate entries in the source; they are usually repeats but may differ in a detail not shown here. Identical values can stand only once.

Test system: MDA-MB-468 spheroids with HUVEC/MSC, viability
Test: Anticancer human tumor MDA-MB-468 cell line growth inhibition [PI3K];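 also: spheroids exposed to agents for seven days before readout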;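 as to viability, T/C: 100% = DMSO vehicle control viability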
Settings: for viability, T/C: stronger effect = lower value
Procedure, shortened: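 Viability of mixed-cell spheroids was determined after exposure to pairwise combinations, one partner being inavolisib, alpelisib, duvelisib or copanlisib. Highest tested concentration matched clinical Cmax where known and 10 microM where not, descending in half-log steps.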

[1] = curve of first compound, second compound 0.0316 µM
[2] = curve of first compound, second compound 0.1 µM
[3] = curve of first compound, second compound 0.316 µM
[4] = curve of first compound, second compound 1 µM
[5] = second compound 0.0316 µM, first compound 0.0316 µM
[6] = second compound 0.0316 µM, first compound 0.1 µM
[7] = second compound 0.0316 µM, first compound 0.316 µM
[8] = second compound 0.0316 µM, first compound 1 µM
[9] = second compound 0.0316 µM, first compound 3.16 µM
[10] = second compound 0.0316 µM, first compound 10 µM
[11] = second compound 0.1 µM, first compound 0.0316 µM
[12] = second compound 0.1 µM, first compound 0.1 µM
[13] = second compound 0.1 µM, first compound 0.316 µM
[14] = second compound 0.1 µM, first compound 1 µM
[15] = second compound 0.1 µM, first compound 3.16 µM
[16] = second compound 0.1 µM, first compound 10 µM
[17] = second compound 0.316 µM, first compound 0.0316 µM
[18] = second compound 0.316 µM, first compound 0.1 µM
[19] = second compound 0.316 µM, first compound 0.316 µM
[20] = second compound 0.316 µM, first compound 1 µM
[21] = second compound 0.316 µM, first compound 3.16 µM
[22] = second compound 0.316 µM, first compound 10 µM
[23] = second compound 1 µM, first compound 0.0316 µM
[24] = second compound 1 µM, first compound 0.1 µM
[25] = second compound 1 µM, first compound 0.316 µM
[26] = second compound 1 µM, first compound 1 µM
[27] = second compound 1 µM, first compound 3.16 µM
[28] = second compound 1 µM, first compound 10 µM

CC1(C)CCC(Nc2ncc(C(F)(F)F)c(-c3c[nH]c4c(P(C)(C)=O)c(C#N)ccc34)n2)CN1 (centres undefined) + CC(Nc1ncnc2nc[nH]c12)c1cc2cccc(Cl)c2c(=O)n1-c1ccccc1
IC50 [1]: < 31.6 nM
IC50 [2]: < 31.6 nM
IC50 [3]: < 31.6 nM
IC50 [4]: < 31.6 nM
IC50 (curve of first compound, second compound 3.16 µM): < 31.6 nM
IC50 (curve of first compound, second compound 10 µM): < 31.6 nM
viability, T/C [5]: 11.2%
viability, T/C [6]: 8.83%
viability, T/C [7]: 8.44%
viability, T/C [8]: 8.51%
viability, T/C [9]: 9.51%
viability, T/C [10]: 1.74%
viability, T/C [11]: 12.5%
viability, T/C [12]: 11.6%
viability, T/C [13]: 8.64%
viability, T/C [14]: 8.66%
viability, T/C [15]: 8.77%
viability, T/C [16]: 1.45%
viability, T/C [17]: 11.2%
viability, T/C [18]: 11%
viability, T/C [19]: 9.67%
viability, T/C [20]: 8.74%
viability, T/C [21]: 9.29%
viability, T/C [22]: 1.74%
viability, T/C [23]: 12.8%
viability, T/C [24]: 10.6%
viability, T/C [25]: 9.64%
viability, T/C [26]: 9.48%
viability, T/C [27]: 9.76%
viability, T/C [28]: 1.16%
viability, T/C (second compound 3.16 µM, first compound 0.0316 µM): 11.8%
viability, T/C (second compound 3.16 µM, first compound 0.1 µM): 10.2%
viability, T/C (second compound 3.16 µM, first compound 0.316 µM): 11.1%
viability, T/C (second compound 3.16 µM, first compound 1 µM): 9.71%
viability, T/C (second compound 3.16 µM, first compound 3.16 µM): 7.09%
viability, T/C (second compound 3.16 µM, first compound 10 µM): 1.3%
viability, T/C (second compound 10 µM, first compound 0.0316 µM): 12.6%
viability, T/C (second compound 10 µM, first compound 0.1 µM): 10.8%
viability, T/C (second compound 10 µM, first compound 0.316 µM): 10%
viability, T/C (second compound 10 µM, first compound 1 µM): 10%
viability, T/C (second compound 10 µM, first compound 3.16 µM): 7.06%
viability, T/C (second compound 10 µM, first compound 10 µM): 1.03%

C=CC(=O)N1CCN(c2nc(=O)n(-c3c(C)ccnc3C(C)C)c3nc(-c4c(O)cccc4F)c(F)cc23)C(C)C1 (centres undefined) + COc1c(OCCCN2CCOCC2)ccc2c3n(c(=NC(=O)c4cnc(N)nc4)nc12)CCN3
IC50 (curve of first compound, second compound 0.00316 µM): > 10000 nM
IC50 (curve of first compound, second compound 0.01 µM): > 10000 nM
IC50 [1]: > 10000 nM
IC50 [2]: > 10000 nM
IC50 [3]: < 31.6 nM
IC50 [4]: < 31.6 nM
viability, T/C (second compound 0.00316 µM, first compound 0.0316 µM): 92%
viability, T/C (second compound 0.00316 µM, first compound 0.1 µM): 92.9%
viability, T/C (second compound 0.00316 µM, first compound 0.316 µM): 97.5%
viability, T/C (second compound 0.00316 µM, first compound 1 µM): 109%
viability, T/C (second compound 0.00316 µM, first compound 3.16 µM): 104%
viability, T/C (second compound 0.00316 µM, first compound 10 µM): 79.1%
viability, T/C (second compound 0.01 µM, first compound 0.0316 µM): 81.1%
viability, T/C (second compound 0.01 µM, first compound 0.1 µM): 80.5%
viability, T/C (second compound 0.01 µM, first compound 0.316 µM): 102%
viability, T/C (second compound 0.01 µM, first compound 1 µM): 97%
viability, T/C (second compound 0.01 µM, first compound 3.16 µM): 99.7%
viability, T/C (second compound 0.01 µM, first compound 10 µM): 70.1%
viability, T/C [5]: 75.2%
viability, T/C [6]: 73.4%
viability, T/C [7]: 79.8%
viability, T/C [8]: 89.7%
viability, T/C [9]: 80.2%
viability, T/C [10]: 65%
viability, T/C [11]: 56.7%
viability, T/C [12]: 58.4%
viability, T/C [13]: 50.9%
viability, T/C [14]: 63.1%
viability, T/C [15]: 61.5%
viability, T/C [16]: 41.3%
viability, T/C [17]: 29.9%
viability, T/C [18]: 26.6%
viability, T/C [19]: 27.8%
viability, T/C [20]: 31.4%
viability, T/C [21]: 28.2%
viability, T/C [22]: 18.4%
viability, T/C [23]: 4.14%
viability, T/C [24]: 3.02%
viability, T/C [25]: 3.41%
viability, T/C [26]: 3.9%
viability, T/C [27]: 3.76%
viability, T/C [28]: 2.73%

CCN1CCN(Cc2ccc(Nc3ncc(F)c(-c4cc(F)c5nc(C)n(C(C)C)c5c4)n3)nc2)CC1
viability, T/C (compound 0.00316 µM): 98.5% and 101% (2×) and 106%
viability, T/C (compound 0.0316 µM): 99.3% [middle of 4 runs]
viability, T/C (compound 0.316 µM): 108% [middle of 4 runs]
viability, T/C (compound 1 µM): 66.1% [middle of 4 runs]
IC50 (curve of compound): > 1000 nM
